Measured values: US20020025298A1, “Use of texaphyrin in ocular diagnosis and therapy” (Pharmacyclics, Inc., priority 1996, published 2002)
Where “and” joins values, the source holds several entries; their conditions need not be identical. Equal entries are not always repeated. Where two headings read alike, the source gives them in different places.

How the values were obtained:
[1] = system: rabbit plasma proteins and lipoproteins; assay: In vivo binding to plasma proteins and lipoproteins, KBr density-gradient ultracentrifugation; details: for binding to plasma elements (in words): rabbit, in vivo
Method: (§1) Plasma Analysis. Rabbits were injected via the ear vein with 1 μmol Lu(III)T2BET/kg and blood was collected at 15 min, 30 min, 3 hr, and 5 hr post administration. EDTA was used as the anticoagulant. Plasma samples (25 μl) were mixed with 10 mM Triton X100 (3 ml) and analyzed by fluorescence. Fluorescence spectra were acquired with a SLM 48000S instrument, excitation was between 450-480 nm and emission monitored from 700-800 nm. In vivo binding of Lu(III)T2BET to rabbit plasma proteins and lipoproteins was assessed using KBr density-gradient ultracentrifugation to fractionate the protein/lipoprotein mixture, followed by fluorescence spectroscopy to determine the relative distribution of Lu(III)T2BET among the low-density lipoproteins (LDL), high-density lipoproteins (HDL), and heavy proteins.

[2] = cited from earlier work
[3] = cited from earlier work; remark: listed apart in the source
normal NZW rabbits = assay: Fluorescence angiography in normal NZW rabbits with fundoscopy and H&E histology (safety); format: in vivo, rabbit; details: i.v. 1-10 μmol/kg, fluorescein and ICG angiography and H&E histology
Method: Fluorescence angiography comparing LuT2BET, fluorescein, and ICG was performed on normal NZW rabbits. Normal rabbits (n=4) received an intravenous injection of LuT2BET from 1-10 μmol/kg after intramuscular sedation and pupillary dilatation. Extensive fundoscopy was performed immediately and up to 2 hours post texaphyrin, fluorescein, or ICG administration. […] In further studies, vascular lesions including neovascularization was induced in albino rabbits (NZW) using photocoagulation. PDT using LuT2BET was carried out on the induced lesions. […] Therefore, selective accumulation of Lu(III)T2BET in areas of neovascularization should facilitate diagnosis and photodynamic therapy of age-related macular degeneration and other disorders related to abnormal vasculature.
Dyes. Lutetium texaphyrin, Lu(III)T2BET, was dissolved in 5% mannitol at a concentration of 2 mM. Indocyanine-green (ICG, Cardio-Gree^n®, Becton Dickinson and Company, Cockeysville, Md.) and fluorescein (Alcon Laboratories, Fort Worth, Tex.) fluorescent angiograms were performed at concentrations of 0.31 mg/kg and 7.5 mg/kg, respectively. […]
Photography. Fundus photography and fluorescence angiograms were performed with the TOPCON™50VT camera coupled to the Ophthalmic Imaging System (Ophthalmic Imaging System Inc., Sacramento, Calif.). […] ICG was excited at 790-805 nm and fluorescence detected at 835 nm. […]

[4] = Plasma analysis: plasma concentration by fluorescence; format: in vivo; details: rabbit, i.v. 1 μmol/kg
Method: as §1

[5] = system: induced vascular lesions of the eye; assay: Photodynamic therapy of induced vascular lesions of the eye; format: in vivo; details: rabbit
Method: Induction of Neovascularization. Photocoagulation bums were introduced in the right macular retina of seven rabbits with an argon dye laser (Coherent Inc., Palo Alto, Calif.). On average, five lesions were induced with 577 nm light using a spot size of 50 μm using enough power (typically 450 mW) to cause bleeding into the retina. The eyes were photographed immediately after photocoagulation. Fluorescein and ICG angiograms were performed 11-15 days after photocoagulation. […] Four control animals, having no induced lesions, were given fluorescence angiograms with the respective dyes.
PDT Protocol. Animals received Lu(III)T2BET, 30 minutes post injection laser light at 488 nm, spot size of 1000 μm, was directed to each lesion via a slitlamp system. Fluorescein angiography was performed throughout the procedure, from prior to until after PDT.
Thirty minutes after injection with LuT2BET, laser light at 488 nm, spot size of 1000 μm, was directed to the lesion via a slitlamp lens system.

[6] = Absorption spectrum and fluorescence profile; format: physicochemical

O=C1OC2(c3ccc(O)cc3Oc3cc(O)ccc32)c2ccccc21 [fluorescein, reference compound]
binding to plasma elements (in words) [1]: not bound to plasma elements

CCOC(=O)C1=Cc2c3nc(cc4nc(cc5[n-]c(cc6[n-]c2c(C)c6CC)c(C)c5CC)C(C)=C4CC)[C@@H](C)[C@]13CC.[Cl-].[Cl-].[Sn] (racemic) [SnET2, Tin etiopurpurin]
solubility in aqueous solutions [2]: insoluble

porfimer sodium
duration of cutaneous photosensitivity ([3]; light of 630 nm): up to 6 weeks

CC1(C)C(/C=C/C=C/C=C/C=C2\N(CCCCS(=O)(=O)O)c3ccc4ccccc4c3C2(C)C)=[N+](CCCCS(=O)(=O)[O-])c2ccc3ccccc3c21 [ICG, indocyanine green, reference compound]
binding to plasma elements (in words) [1]: binding mainly to albumin

CC(=O)[O-].CC(=O)[O-].CCc1c(CC)c2cc3nc(cnc4cc(OCCOCCOCCOC)c(OCCOCCOCCOC)cc4ncc4nc(cc1[n-]2)C(CCCO)=C4C)C(C)=C3CCCO.O.[Lu+3] [LuT2BET]
normal tissue damage after fluorescence angiography (normal NZW rabbits): no evidence of normal tissue damage
concentration in plasma ([4]; 15 min): 2680 ng/mL
concentration in plasma ([4]; 30 min): 1790 ng/mL
concentration in plasma ([4]; 3 hr): 180 ng/mL
concentration in plasma ([4]; 5 h): 120 ng/mL
damage in control normal choroid or retinal tissue after PDT [5]: no damage was observed
damage to surrounding vessels or tissues after PDT [5]: No damage
closure of induced lesions after PDT ([5]; 488 nm light 30 min after injection, spot size 1000 μm): Closure of induced lesions was observed
fluorescein leakage outside the treated vessel after PDT ([5]; fluorescein angiogram after PDT): limited fluorescence leakage outside of the PDT-treated vessel
absorption bands [6]: 470 nm and 732 nm
fluorescence emission profile centre [6]: 750 nm
extinction coefficient ε ([6]; at 732 nm): 32,000 M^−1 cm^−1
fluorescence emission FWHM ([6]; emission centered at 750 nm): 60 nm
relative in vivo binding, HDL fraction ([1]; rabbit plasma): 49%
relative in vivo binding, LDL portion ([1]; rabbit plasma): 10.5%
relative in vivo binding, heavy proteins ([1]; rabbit plasma): 40.5%
binding to plasma elements (in words) [1]: predominantly bound to lipoproteins and to some extent albumin

Benzoporphyrin derivative [BPD]
duration of cutaneous photosensitivity ([3]; in vivo): a few days
solubility in aqueous solutions [2]: insoluble
